The values that follow come from patent US5589485A, “Dorrigocin antitumor agents” (priority 1995, dated 1996).

The test system of data set [1] is Candida albicans ATCC 10231. Kind of data set: In vitro antifungal activity, agar dilution MIC. Type of data set: cell-based. The method, then: (§1) Minimal inhibitory concentrations (MICs) were determined by an agar dilution method. The test compounds were serially diluted in MeOH and 0.2 ml portions were mixed with 20 ml of molten, cooled Sabouraud dextrose agar (Difco). Yeast cell inoculum was prepared by growing cultures on Sabouraud dextrose agar for 18 hours at 32° C. and suspending the cells in phosphate buffered saline. Filamentous fungi were grown under the same conditions for 4 days to obtain spores. The inoculum level for all cultures was adjusted to 10^4 cells using a Petroff-Hauser cell counter. The glutarimide antifungal compound cycloheximide was used as a control. Inoculated test plates were incubated at 32° C. and examined after 20 hours.
Background: Agar dilution tests growth on a series of plates holding different concentrations.

Data set [2] deals with Candida tropicalis NRRL-Y-112. Kind of data set: In vitro antifungal activity, agar dilution MIC. Type of data set: cell-based. The protocol: as §1
The subject of another data set is A. fumigatus ATCC 26430. Kind of data set: In vitro antifungal activity, agar dilution MIC. Type of data set: cell-based. The note with it: Aspergillus fumigatus. The protocol:
as §1

A further data set concerns F. solani AARC 0353. The data set is described as follows: In vitro antifungal activity, agar dilution MIC. Type of data set: cell-based. As to conditions: Fusarium solani. The method, then: as §1
Data set [3] has as its system Saccharomyces cereviseae GS1-36. Kind of data set: In vitro antifungal activity, agar dilution MIC. Type of data set: cell-based. The protocol: as §1
Data set [4] concerns Torulopsis glabrata ATCC 15545. The data set is described as follows: In vitro antifungal activity, agar dilution MIC. Type of data set: cell-based. As to conditions: Nakaseomyces glabratus. The protocol: as §1
Data set [5] relates to Fusarium moniliforme AARC 0397. Kind of data set: In vitro antifungal activity, agar dilution MIC. Type of data set: cell-based. As to conditions: Fusarium verticillioides. The method, then: as §1
In data set [6] the test system is A. parasiticus NRRL 13539. The data set is described as follows: In vitro antifungal activity, agar dilution MIC. Type of data set: cell-based. The note with it: Aspergillus parasiticus. The method, then:
as §1

A further data set relates to A. flavus NRRL 6541. Kind of data set: In vitro antifungal activity, agar dilution MIC. Type of data set: cell-based. As to conditions: Aspergillus flavus. The method, then:
as §1

The subject of data set [7] is Candida albicans ATCC 38247. The data set is described as follows: In vitro antifungal activity, agar dilution MIC. Type of data set: cell-based. The method, then:
as §1

The subject of data set [8] is Aspergillus niger ATCC 16404. Kind of data set: In vitro antifungal activity, agar dilution MIC. Type of data set: cell-based. The protocol: as §1
The next data set has as its system Candida albicans 579A. The data set is described as follows: In vitro antifungal activity, agar dilution MIC. Type of data set: cell-based. The protocol:
as §1

Data set [9] has as its system K-ras-transformed NIH/3T3 mouse fibroblasts. Kind of data set: In vitro antitumor activity: transformed foci / morphology reversion. Type of data set: cell-based. As to conditions: for activity at 0.4 µg/mL: compound dose 0.4 μg/ml; for morphology reversion of transformed cells: microscopic examination. The protocol: Transformed cells are typically rounded when the mutant ras gene is expressed. Normal cells, on the other hand, are flat and adhere to the bottom of a tissue culture plate.
Normal and transformed NIH/3T3 cells were cultured in Dulbecco's modified Eagle medium containing 10% fetal bovine serum, and gentamicin 50 μg/ml at 37° C. in 5% CO2. Ras transformants also contained […] G418. To test the effect of Dorrigocins, 2×10^4 cells were added to 24 well microtiter plates and incubated for 24 hours at 37° C. when the cells had uniformly adhered to the microtiter tray, various concentrations of Dorrigocin A and B dissolved in DMSO, were added and the plates incubated at 37° C. for an additional 48 hours. Cellular morphology was examined microscopically and the average number of transformed foci per field was determined by counting at least 6 separate fields. These foci represent transformed cells that were unaffected by the addition of compound.

Another data set in a line: Solubility. Type of data set: physicochemical.
[10] abbreviates: ATCC10231, Sabouraud dextrose agar, 32° C., 20 hours, read-out: MIC.
[11] abbreviates: NRRLY112, Sabouraud dextrose agar, 32° C., 20 hours, read-out: MIC.
Where [12] appears, read: ATCC26430, Sabouraud dextrose agar, 32° C., 20 hours, read-out: MIC.
[13] abbreviates: AARC0353, Sabouraud dextrose agar, 32° C., 20 hours, read-out: MIC.
The mark [14] stands for this setting: GS136, Sabouraud dextrose agar, 32° C., 20 hours, read-out: MIC.
[15] abbreviates: ATCC15545, Sabouraud dextrose agar, 32° C., 20 hours, read-out: MIC.
[16] abbreviates: AARC0397, Sabouraud dextrose agar, 32° C., 20 hours, read-out: MIC.
Where [17] appears, read: NRRL13539, Sabouraud dextrose agar, 32° C., 20 hours, read-out: MIC.
Where [18] appears, read: NRRL6541, Sabouraud dextrose agar, 32° C., 20 hours, read-out: MIC.
The mark [19] stands for this setting: ATCC38247, Sabouraud dextrose agar, 32° C., 20 hours, read-out: MIC.
[20] abbreviates: ATCC16404, Sabouraud dextrose agar, 32° C., 20 hours, read-out: MIC.
[21] abbreviates: Sabouraud dextrose agar, 32° C., 20 hours, read-out: MIC.
The mark [22] stands for this setting: Mus musculus, NIH3T3, 48 hours, untreated NIH/3T3 K-ras = 100, read-out: Transformed foci percentage.

Converted amounts (≈) assume the structure as drawn. Read-outs that look alike come from different tables or passages of the source.

For orientation: MIC means the lowest concentration found to suppress growth. Regarding `C[C@@H]1C[C@@H]([C@H](O)CC2CC(=O)NC(=O)C2)C(=O)[C@@H](C)C1` [Cycloheximide, cycloheximide, reference compound], the MIC is > 100 µg/mL in [1] (ATCC10231, 20 h); 0.4 µg/mL (≈ 1.42 µM) in data set [2] (NRRLY112, 20 h); 1.6 µg/mL (≈ 5.69 µM) in the data set with A. fumigatus ATCC 26430 (ATCC26430, 20 h); 0.8 µg/mL (≈ 2.84 µM) against F. solani AARC 0353 (AARC0353, 20 h); < 0.05 µg/mL in data set [3] (GS136, 20 h); 0.4 µg/mL (≈ 1.42 µM) in [4] (ATCC15545, 20 h). The MIC in data set [5] (AARC0397, 20 h) was 0.8 µg/mL (≈ 2.84 µM); in data set [6] (NRRL13539, 20 h), 25 µg/mL (≈ 88.9 µM); in the data set with A. flavus NRRL 6541 (NRRL6541, 20 h), 50 µg/mL (≈ 178 µM); in [7] (ATCC38247, 20 h) it was > 100 µg/mL; in data set [8] (ATCC16404, 20 h) it was 1.6 µg/mL (≈ 5.69 µM); against Candida albicans 579A (20 h), > 100 µg/mL.

Take `COC(C=CCCC=CC(=O)O)C(O)C(C)C=C(C)C(O)C(C)C(=O)CCCC1CC(=O)NC(=O)C1` (stereo not drawn) [Dorrigocin A]: the MIC in data set [1] (setting [10]) is > 100 µg/mL; in data set [2] (setting [11]), > 100 µg/mL; in the data set on A. fumigatus ATCC 26430 (setting [12]) it was 25 µg/mL (≈ 49.2 µM); in the data set on F. solani AARC 0353 (setting [13]), 25 µg/mL (≈ 49.2 µM); in data set [3] (setting [14]) it was > 100 µg/mL; in [4] (setting [15]) it was > 100 µg/mL. Moreover, the MIC in data set [5] (setting [16]) was 100 µg/mL (≈ 197 µM); in data set [6] (setting [17]) it was > 100 µg/mL; in the data set with A. flavus NRRL 6541 (setting [18]), > 100 µg/mL; in data set [7] (setting [19]), > 100 µg/mL; in data set [8] (setting [20]), 25 µg/mL (≈ 49.2 µM); in the data set on Candida albicans 579A (setting [21]), > 100 µg/mL. For the same molecule, the “dose dependence of morphology reversion” value in [9] (48 hours) is “dose-dependent”. For the same molecule, the “relative effectiveness in morphology reversion and reduction in the number of foci” value in [9] (Dorrigocin A compared with Dorrigocin B) was “more effective than Dorrigocin B”. For the same molecule, in data set [9] (Mus musculus, NIH3T3, compound dose 0.08 μg/ml, 48 hours, untreated NIH/3T3 K-ras = 100, read-out: Transformed foci percentage), the activity at 0.08 µg/mL was 76%. The activity at 0.4 µg/mL in data set [9] (setting [22]) was determined as 26%. Also, in [9] (Mus musculus, NIH3T3, compound dose 10 μg/ml, 48 hours, untreated NIH/3T3 K-ras = 100, read-out: Transformed foci percentage), the activity at 10 µg/mL was determined as 22%. The “morphology reversion of transformed cells” value in [9] (48 hours) was “caused transformed cells to revert to a morphology resembling that of normal cells”. In the data set “Solubility”, the “solubility in methanol and dimethylsulfoxide” value was “readily soluble in methanol and dimethylsulfoxide”.

Turning to `COC(C=CCCC=CC(=O)O)C(O)C(C)C(O)C(C)=CC(C)C(=O)CCCC1CC(=O)NC(=O)C1` (stereo not drawn) [Dorrigocin B], the MIC in data set [1] (setting [10]) is > 100 µg/mL; in data set [2] (setting [11]) it was > 100 µg/mL; in the data set with A. fumigatus ATCC 26430 (setting [12]), 12.5 µg/mL (≈ 24.6 µM); in the data set with F. solani AARC 0353 (setting [13]) it was 25 µg/mL (≈ 49.2 µM); in [3] (setting [14]), > 100 µg/mL; in data set [4] (setting [15]), > 100 µg/mL. Besides, the MIC in data set [5] (setting [16]) is 50 µg/mL (≈ 98.5 µM); in data set [6] (setting [17]), 100 µg/mL (≈ 197 µM); in the data set with A. flavus NRRL 6541 (setting [18]) it was 100 µg/mL (≈ 197 µM); in data set [7] (setting [19]), > 100 µg/mL; in data set [8] (setting [20]), 12.5 µg/mL (≈ 24.6 µM); in the data set on Candida albicans 579A (setting [21]), > 100 µg/mL. Besides, the “dose dependence of morphology reversion” value in data set [9] (48 hours) is “dose-dependent”. The activity at 10 µg/mL in data set [9] (Mus musculus, NIH3T3, 48 h, read-out: Transformed foci percentage) is 7%. For the same molecule, the activity at 0.4 µg/mL in data set [9] (setting [22]) came to 96%. The “morphology reversion of transformed cells” value in data set [9] (48 hours) is “caused transformed cells to revert to a morphology resembling that of normal cells”. Further, the “solubility in methanol and dimethylsulfoxide” value in “Solubility” is “readily soluble in methanol and dimethylsulfoxide”.
